In patent US20240148038A1, “TASTE-MASKING COMPOUNDS AND COMPOSITIONS AND USES THEREOF” (HEALTHTECH BIO ACTIVES, S.L.U., priority 2021, published 2024):

Columns and labels:
[1] = Masking bitterness of paracetamol: test panel, equibitter paracetamol solution; type: in vivo
Protocol: The bitter masking effect of hesperidin against paracetamol was assayed. The anti-bittering effect was measured as a dose-response profile vs. a solution of paracetamol.
A calibrated test panel compared each solution with several solutions of paracetamol in water at different concentrations and determined the equibitter paracetamol solution. The equibitter solution was calculated as the average of all the evaluations of the panel.
The masking effect or percentage of bitterness reduction was then calculated from the reference amount of paracetamol contained in each tested solution (5000 ppm) and the amount of paracetamol in the equibitter solution, using the following formula: […]
Thus, for example, a solution containing 5000 ppm of paracetamol and 250 ppm of hesperidin was equibitter to a solution containing 4000 ppm of paracetamol. Therefore, the masking effect was 20%.
The bitter masking effect of a racemic hesperidin (57% hesperidin 2S: 43% hesperidin 2R; purchased by HealthTech Bio Actives, S.L.U. Beniel, Spain) against paracetamol was also assayed. The anti-bittering effect was measured as a dose-response profile vs. a solution of paracetamol as described above.
Further, the bitter masking effect of a different flavonoid compound, neodiosmin (purchased by HealthTech Bio Actives, S.L.U. Beniel, Spain), was also tested. The anti-bittering effect was measured as a dose-response profile vs. a solution of paracetamol as explained before.

[2] = Solubility in water; type: physicochemical
Protocol: Hesperidin 2S has a very low solubility in water (less than 10 ppm). However, in presence of NaOH, its solubility increases. In order to study the component in liquid matrixes, a non-heated H2O—NaOH solution was prepared (Table 1).

[3] = Panel evaluation in orange juices containing oleuropeins; type: in vivo; conditions: orange juice with 500 ppm Olews 40%
Protocol: NaOH:H2O solutions containing different concentrations (100 ppm and 200 ppm) of Hesperidin 2S were prepared as explained above (Table 1) and added to orange juices containing 500 ppm Olews 40% (500 ppm Olews 40%=160 ppm oleuropein). Olews 40% provided by HealthTech Bio Actives S.L.U. (Beniel, Spain).
The taste masking effect against oleuropeins was assayed following an analogous procedure to the one used in Example 1 for paracetamol.
For each tested solution, a test panel determined the equibitter oleuropein solution, and the masking effect was calculated as explained in Example 1. A panel of experts was used to determine the reduction in unpleasant taste impressions of the orange juice preparations containing oleuropeins after addition of H2S.

[4] = Panel evaluation in crackers with reduced NaCl containing KCl; type: in vivo; conditions: 200 ppm H2S
Protocol: A dosage of 200 ppm of H2S was added to crackers with reduced content of sodium chloride (NaCl) and containing potassium chloride (KCl; Panreac). The composition of the crackers is disclosed in Table 4 below:
The taste masking effect was assayed, following an analogous procedure to the one disclosed in Example 1. A panel of experts was used to determine the reduction in unpleasant taste impressions of the potassium chloride-containing preparations after addition of H2S.

[5] = Panel evaluation in dark chocolate 95%; type: in vivo
Protocol: Reduction of unpleasant taste impressions in dark chocolate (95%) preparations was evaluated using different concentrations of H2S (100 ppm and 200 ppm).
Hesperidin 2S (dry powder) was incorporated into a sample of melted dark chocolate (95%). The liquid mass was cooled and mold, obtaining a solid chocolate.
A panel of experts was used to determine the reduction in unpleasant taste impressions of the dark chocolate (95%) preparations.

[6] = Panel evaluation in limonin solution (greening disease model); type: in vivo; conditions: 200 ppm H2S in limonin 50 ppm solution
Protocol: In order to determine the reduction in unpleasant taste impressions (bitterness) by hesperidin in a greening disease model, a limonin solution was prepared as indicated in Table 6. This solution was used for testing. Limonin (99.66%) was purchased from TargetMol.
The effect of H2S (200 ppm) in a limonin solution (50 ppm) was evaluated. A panel of experts was used to determine the reduction in unpleasant taste impressions of the limonin-containing preparation.

[7] = Panel evaluation in greening affected orange juices; type: in vivo; conditions: greening affected orange juice
Protocol: Orange Juice samples obtained from oranges from trees afflicted with greening disease were provided by F&M Solutions (Brasil). The juice samples were prepared by squeezing oranges collected from afflicted tree branches from local Brazilian farmers. The squeezed orange juice was bottled and pasteurized by standard methods well known in the art.
Different concentrations of Hesperidin 2S (100 ppm and 200 ppm) were evaluated in the orange juices from greening afflicted oranges.
A panel of experts was used to determine the reduction in unpleasant taste impressions of the different samples.

[8] = Panel evaluation in fresh squeezed orange juices; type: in vivo; conditions: 100 ppm or 200 ppm H2S; fresh squeezed orange juice
Protocol: NaOH:H2O solutions containing different concentrations (100 ppm and 200 ppm) of Hesperidin 2S were prepared as explained above (Table 1) and added to fresh squeezed orange juices.
A panel of experts was used to determine the reduction in unpleasant tastes of the fresh squeezed orange juices after addition of different concentrations of H2S.

[9] = Panel evaluation in tonic water; type: in vivo; conditions: quinine salt 78 ppm
Protocol: NaOH:H2O solutions containing different concentrations (100 ppm and 200 ppm) of Hesperidin 2S were prepared as explained above (Table 1) and added to a tonic water samples prepared as indicated in Table 10 below:
A panel of experts was used to determine the reduction in unpleasant taste impression of the different samples.

[10] = Panel evaluation in plant-based burger containing oleuropeins; type: in vivo; conditions: plant-based burger with 2000 ppm Olews 40%
Protocol: Reduction of unpleasant taste impression in a plant-based burger was evaluated using different concentrations of H2S (100 ppm and 200 ppm). Hesperidin 2S (dry powder) was incorporated into the preparations containing 2000 ppm Olews 40% provided by HealthTech Bio Actives, S.L.U. (Beniel, Spain) (2000 ppm Olews 40%=[…]) as indicated in Table 11 below:
A panel of experts was used to determine the reduction in unpleasant taste impressions of the plant-based burger preparations.

[11] = Panel evaluation in protein milkshake; type: in vivo; conditions: 100 ppm or 200 ppm H2S
Protocol: NaOH:H2O solutions containing different concentrations (100 ppm and 200 ppm) of Hesperidin 2S were prepared as explained above (Table 1) and added to a protein milkshake prepared as indicated in Table 12 below.
The taste masking effect was assayed, following an analogous procedure to the one used in Example 1. A panel of experts was used to determine the reduction in unpleasant taste impressions of the protein milkshake preparations after addition of H2S.

[12] = 10 ppm test substance in 5000 ppm paracetamol aqueous solution
[13] = 50 ppm test substance in 5000 ppm paracetamol aqueous solution
[14] = 100 ppm test substance in 5000 ppm paracetamol aqueous solution
[15] = 250 ppm test substance in 5000 ppm paracetamol aqueous solution
[16] = 250 ppm test substance in 5000 ppm paracetamol aqueous solution, listed as hesperidin
[17] = 500 ppm test substance in 5000 ppm paracetamol aqueous solution

Question: With `COc1ccc([C@@H]2CC(=O)c3c(O)cc(O[C@@H]4O[C@H](CO[C@@H]5O[C@@H](C)[C@H](O)[C@@H](O)[C@H]5O)[C@@H](O)[C@H](O)[C@H]4O)cc3O2)cc1O` (racemic) [Hesperidin 2S, (2S)-5-hydroxy-2-(3-hydroxy-4-methoxyphenyl)-7-[(2S,3R,4S,5S,6R)-3,4,5-trihydroxy-6-{[(2R,3R,4R,5R,6S)-3,4,5-trihydroxy-6-methyloxan-2-yl]oxymethyl}oxan-2-yl]oxy-2,3-dihydrochromen-4-one] as the molecule, how does the “% of bitterness reduction” value [1, 12] read?
Answer: 5%

Question: And the Equibitter paracetamol concentration [1, 12]?
Answer: 4750 ppm

Question: And the “% of bitterness reduction” value [1, 13]?
Answer: 11%

Question: What about the Equibitter paracetamol concentration [1, 13] of the same molecule?
Answer: 4450 ppm

Question: What about the “% of bitterness reduction” value [1, 14] of the same molecule?
Answer: 20%

Question: And the Equibitter paracetamol concentration [1, 14]?
Answer: 4000 ppm

Question: What about the “% of bitterness reduction” value [1, 15] of the same molecule?
Answer: 37%

Question: And the Equibitter paracetamol concentration [1, 15]?
Answer: 3150 ppm

Question: What about the “% of bitterness reduction” value ([1]; 250 ppm test substance in 5000 ppm paracetamol aqueous solution, listed as H2S) of the same molecule?
Answer: 37%

Question: And the “% of bitterness reduction” value [1, 16]?
Answer: 20%

Question: What about the Equibitter paracetamol concentration [1, 16] of the same molecule?
Answer: 4000 ppm

Question: What about the “% of bitterness reduction” value ([1]; 250 ppm test substance in 5000 ppm paracetamol aqueous solution, listed as non-racemic hesperidin 2S) of the same molecule?
Answer: 37%

Question: What about the “solubility in presence of NaOH” value ([2]; in presence of NaOH) of the same molecule?
Answer: increases

Question: And the solubility in water ([2]; water)?
Answer: less than 10 ppm

Question: And the orange notes ([3]; 200 ppm H2S (FIG. 1B))?
Answer: enhanced

Question: And the “woody and bitter taste coming from the oleuropein masked” value ([3]; 200 ppm H2S (FIG. 1B))?
Answer: 40%

Question: What about the “woody and bitter taste” value ([3]; 200 ppm H2S as printed (FIG. 1A)) of the same molecule?
Answer: masked

Question: What about the “pungent and metallic notes” value ([4]; KCl-containing crackers) of the same molecule?
Answer: suppressed

Question: What about the saltiness ([4]; crackers with reduced sodium chloride) of the same molecule?
Answer: increase

Question: What about the bitterness and astringency ([5]; 200 ppm H2S) of the same molecule?
Answer: decreased

Question: What about the flavonoid notes ([5]; 200 ppm H2S) of the same molecule?
Answer: not present

Question: And the bitterness ([5]; 200 ppm H2S as printed)?
Answer: decrease

Question: What about the cocoa notes ([5]; 200 ppm H2S as printed) of the same molecule?
Answer: slightly enhanced

Question: What about the “% of bitterness reduction” value [6] of the same molecule?
Answer: 30%

Question: And the Equibitter [6]?
Answer: 35 ppm

Question: And the “bitterness, acidity and astringency” value ([7]; 100 ppm H2S)?
Answer: significant reduction

Question: What about the flavonoid note ([7]; 100 ppm H2S) of the same molecule?
Answer: noticeable

Question: And the “green orange notes and bitter aftertaste” value ([7]; 100 ppm H2S)?
Answer: Reduction

Question: And the overall orange notes ([7]; 100 ppm H2S)?
Answer: slight reduction

Question: What about the flavonoid note ([7]; 200 ppm H2S) of the same molecule?
Answer: increased

Question: What about the “green orange notes and bitter aftertaste” value ([7]; 200 ppm H2S) of the same molecule?
Answer: reduction

Question: What about the overall orange notes ([7]; 200 ppm H2S) of the same molecule?
Answer: reduction

Question: And the “bitterness, acidity and astringency” value ([7]; 200 ppm H2S, to a lesser extent than 100 ppm)?
Answer: reduction

Question: And the “astringent and bitter taste” value [8]?
Answer: clearly reduced

Question: And the bitterness ([9]; 100 ppm H2S)?
Answer: significant reduction

Question: And the bitterness ([9]; 200 ppm H2S)?
Answer: reduction

Question: What about the bitterness ([10]; 100 ppm H2S) of the same molecule?
Answer: decrease

Question: And the flavonoid notes ([10]; 100 ppm H2S)?
Answer: not present

Question: And the woody off-flavor notes ([10]; 100 ppm H2S)?
Answer: reduced

Question: And the “bitterness and bean notes” value ([10]; 200 ppm H2S)?
Answer: decreased

Question: What about the flavonoid notes ([10]; 200 ppm H2S) of the same molecule?
Answer: not present

Question: And the woody off-flavor notes ([10]; 200 ppm H2S)?
Answer: reduced

Question: And the bitter taste [11]?
Answer: reduced

Question: What about the dry fava notes [11] of the same molecule?
Answer: reduced

Question: Which “% of bitterness reduction” value [1, 12] does the source give for `COc1ccc([C@@H]2CC(=O)c3c(O)cc(O[C@@H]4O[C@H](CO[C@@H]5O[C@@H](C)[C@H](O)[C@@H](O)[C@H]5O)[C@@H](O)[C@H](O)[C@H]4O)cc3O2)cc1O` (racemic) [Racemic Hesperidin, hesperidin] here?
Answer: 4%

Question: And the Equibitter paracetamol concentration [1, 12]?
Answer: 4800 ppm

Question: What about the “% of bitterness reduction” value [1, 13] of the same molecule?
Answer: 6%

Question: What about the Equibitter paracetamol concentration [1, 13] of the same molecule?
Answer: 4700 ppm

Question: And the “% of bitterness reduction” value [1, 14]?
Answer: 13%

Question: What about the Equibitter paracetamol concentration [1, 14] of the same molecule?
Answer: 4350 ppm

Question: And the “% of bitterness reduction” value [1, 15]?
Answer: 18%

Question: What about the Equibitter paracetamol concentration [1, 15] of the same molecule?
Answer: 4100 ppm

Question: With `COc1ccc(-c2cc(=O)c3c(O)cc(O[C@@H]4O[C@H](CO)[C@@H](O)[C@H](O)[C@H]4O[C@@H]4O[C@@H](C)[C@H](O)[C@@H](O)[C@H]4O)cc3o2)cc1O` [Neodiosmin, neodiosmin, reference compound] as the molecule, how does the “% of bitterness reduction” value [1, 13] read?
Answer: 12%

Question: And the Equibitter paracetamol concentration [1, 13]?
Answer: 4400 ppm

Question: And the “% of bitterness reduction” value [1, 14]?
Answer: 12%

Question: What about the Equibitter paracetamol concentration [1, 14] of the same molecule?
Answer: 4400 ppm

Question: What about the “% of bitterness reduction” value [1, 15] of the same molecule?
Answer: 16%

Question: And the Equibitter paracetamol concentration [1, 15]?
Answer: 4200 ppm

Question: What about the “% of bitterness reduction” value [1, 17] of the same molecule?
Answer: 24%

Question: What about the Equibitter paracetamol concentration [1, 17] of the same molecule?
Answer: 3800 ppm
